From patent publication US20130032547A1, “STABILIZATION AND DISINFECTION OF WASTES USING HIGH ENERGY E-BEAM AND CHEMICAL OXIDANTS” (priority 2011, published 2013)

What was measured:
[1] = tested on: estrogenic activity of 17-β-estradiol (E2); human estrogen receptor; experiment: Estrogenic activity, YES assay (recombinant yeast); type: cell-based, Saccharomyces cereviciae; settings: E2 spiked
[2] = tested on: aerobic spores (Bacillus subtilis); type: cell-based
[3] = tested on: spiked organisms; experiment: Preliminary studies using PBS: ferrate with E-beam on spiked organisms; type: cell-based; settings: ferrate 2 ppm or 4 ppm in combination with E-beam (6 kGy, 8 kGy and 12 kGy)
[4] = tested on: male-specific coliphages (MS-2); type: cell-based, coliphage MS-2
[5] = tested on: Escherichia coli (ATCC #25922); type: cell-based
[6] = tested on: estrogenic activity of 17-β-estradiol (E2); human estrogen receptor (ER) α; experiment: Estrogenic activity, ZR-75 breast cancer cell ERE-Luc reporter assay; type: cell-based; settings: E2 spiked
[7] = tested on: Poliovirus Type 1; type: cell-based, Poliovirus-1
[8] = tested on: Salmonella Typhimurium; type: cell-based
[9] = tested on: estrogenic activity of 17-β-estradiol (E2); human estrogen receptor; settings: it has been shown; cited from earlier work
[10] = Table 28, 50 ppm + E-Beam (8 kGy)
[11] = Table 28, 100 ppm + E-Beam (8 kGy)
[12] = Table 28, 200 ppm + E-Beam (8 kGy)
[13] = Table 29, 50 ppm + E-Beam (8 kGy)
[14] = Table 29, 100 ppm + E-Beam (8 kGy)
[15] = Table 29, 200 ppm + E-Beam (8 kGy)

With [O]=[Fe](=[O])([O-])[O-] [Ferrate, ferrate] the “% Reduction in Estrogenic Activity, Solid Portion (n = 3)” value (from here on “% Reduction … Solid Portion (n = 3)”) [1, 10] was 40%, the “% Reduction … Solid Portion (n = 3)” value ([1]; Table 28, 50 ppm Ferrate) was 40% and the “% Reduction … Solid Portion (n = 3)” value [1, 11] was 43%. For the same molecule, the “% Reduction … Solid Portion (n = 3)” value ([1]; Table 28, 100 ppm Ferrate) was 27%, the “% Reduction … Solid Portion (n = 3)” value [1, 12] was 51% and the “% Reduction … Solid Portion (n = 3)” value ([1]; Table 28, 200 ppm Ferrate) was 59%. The “% Reduction … Solid Portion (n = 3)” value [1, 13] was 29%, the “% Reduction … Solid Portion (n = 3)” value ([1]; Table 29, 50 ppm Ferrate) was 30% and the “% Reduction … Solid Portion (n = 3)” value [1, 14] was 20%. The “% Reduction … Solid Portion (n = 3)” value ([1]; Table 29, 100 ppm Ferrate) was 31%, the “% Reduction … Solid Portion (n = 3)” value [1, 15] was 30% and the “% Reduction … Solid Portion (n = 3)” value ([1]; Table 29, 200 ppm Ferrate) was 29%. For the same molecule, the “log reduction of spore formers” value [2] was “two to three”, the “reduction of spore formers (in words)” value [2] was “slight reduction” and the “inactivation (in words)” value [3] was “inactivated”. For the same molecule, the “inactivation (in words)” value [4] was “Complete inactivation”, the “surviving bacterial colonies (detection limit)” value [5] was under 10 CFU/ml and the “% Reduction in Estrogenic Activity, Liquid Portion (n = 3)” value (“% Reduction … Liquid Portion (n = 3)” for short) ([6]; Table 28 (aerobically digested biosolids, inferred b252), 50 ppm Ferrate) was 84%. The “% Reduction … Liquid Portion (n = 3)” value [6, 10] was 85%, the “% Reduction … Liquid Portion (n = 3)” value [6, 11] was 90% and the “% Reduction … Liquid Portion (n = 3)” value ([6]; Table 28, 100 ppm Ferrate) was 88%. The “% Reduction … Liquid Portion (n = 3)” value [6, 12] was 81%, the “% Reduction … Liquid Portion (n = 3)” value ([6]; Table 28, 200 ppm Ferrate) was 89% and the “% Reduction … Liquid Portion (n = 3)” value ([6]; Table 29 (anaerobically digested biosolids, inferred b252), 50 ppm Ferrate) was 68%. The “% Reduction … Liquid Portion (n = 3)” value [6, 13] was 71%, the “% Reduction … Liquid Portion (n = 3)” value [6, 14] was 74% and the “% Reduction … Liquid Portion (n = 3)” value ([6]; Table 29, 100 ppm Ferrate) was 73%. For the same molecule, the “% Reduction … Liquid Portion (n = 3)” value [6, 15] was 71%, the “% Reduction … Liquid Portion (n = 3)” value ([6]; Table 29, 200 ppm Ferrate) was 72% and the “inactivation (in words)” value [7] was “complete elimination”. The “log reduction (approximated)” value [8] was “around three” and the “surviving bacterial colonies (detection limit)” value [8] was under 10 CFU/ml.

In the case of CC/C(=C(\c1ccc(O)cc1)c1ccc(OCCN(C)C)cc1)c1ccccc1 [hydroxytamoxifen], the “response in the YES assay (in words)” value [9] is given as “partial agonistic (estrogenic) response”.
